Source: ChEMBL document CHEMBL1153550, “In vitro study of Candida tropicalis isolates exhibiting paradoxical growth in the presence of high concentrations of caspofungin” (2007)
Active and inactive are the calls of the source.

Tests used:
Candida tropicalis [1] = test: Antifungal activity against 10^5 CFU/ml Candida tropicalis ATCC 750 in RPMI 1640 medium at 0.4 to 12.5 ug/ml treated for 48 hrs followed by incubation in drug free medium for 48 hrs by broth microdilution method; type: functional, organism-based
Candida tropicalis [2] = test: Antifungal activity against 2 x 10^7 CFU/ml Candida tropicalis ATCC 750 in RPMI 1640 medium after 24 hrs by broth microdilution method; type: functional; conditions: ATCC 750, 24 h
Candida tropicalis [3] = test: Antifungal activity against 10^5 CFU/ml Candida tropicalis isolate 2 in RPMI 1640 medium at 12.5 ug/ml treated for 48 hrs followed by incubation in drug free medium for 48 hrs by broth microdilution method; type: functional, organism-based
Candida tropicalis [4] = test: Antifungal activity against > 2 x 10^7 CFU/ml Candida tropicalis isolate 12 in antibiotic medium 3 assessed as partial growth after 24 hrs by broth microdilution method; type: functional, organism-based
Candida tropicalis [5] = test: Antifungal activity against > 2 x 10^7 CFU/ml Candida tropicalis ATCC 750 in antibiotic medium 3 assessed as partial growth after 24 hrs by broth microdilution method; type: functional, organism-based
Candida tropicalis [6] = test: Antifungal activity against 2 x 10^7 CFU/ml Candida tropicalis isolate 3 in antibiotic medium 3 after 24 hrs by broth microdilution method; type: functional; conditions: isolate 3, 24 h
Candida tropicalis [7] = test: Antifungal activity against 2 x 10^7 CFU/ml Candida tropicalis isolate 2 in RPMI 1640 medium after 24 hrs by broth microdilution method; type: functional; conditions: isolate 2, 24 h
Candida tropicalis [8] = test: Antifungal activity Candida tropicalis ATCC 750 in RPMI 1640 medium at 0.19 to 6.25 ug/ml after 24 hrs by time-kill assay; type: functional, organism-based
Candida tropicalis [9] = test: Antifungal activity against > 2 x 10^7 CFU/ml Candida tropicalis isolate 6 in antibiotic medium 3 assessed as paradoxical growth after 24 hrs by broth microdilution method; type: functional, organism-based
Candida tropicalis [10] = test: Antifungal activity against 10^5 CFU/ml Candida tropicalis isolate 5 in RPMI 1640 medium at 12.5 ug/ml treated for 48 hrs followed by incubation in drug free medium for 48 hrs by broth microdilution method; type: functional, organism-based
Candida tropicalis [11] = test: Antifungal activity against 10^5 CFU/ml Candida tropicalis isolate 12 in RPMI 1640 medium at 12.5 ug/ml treated for 24 hrs followed by incubation in drug free medium for 48 hrs by broth microdilution method; type: functional, organism-based
Candida tropicalis [12] = test: Antifungal activity against 2 x 10^7 CFU/ml Candida tropicalis isolate 2 in antibiotic medium 3 after 24 hrs by broth microdilution method; type: functional; conditions: isolate 2, 24 h
Candida tropicalis [13] = test: Antifungal activity against 10^5 CFU/ml Candida tropicalis isolate 8 in RPMI 1640 medium at 12.5 ug/ml treated for 48 hrs followed by incubation in drug free medium for 48 hrs by broth microdilution method; type: functional, organism-based
Candida tropicalis [14] = test: Antifungal activity against 10^5 CFU/ml Candida tropicalis isolate 15 in RPMI 1640 medium at 12.5 ug/ml treated for 24 hrs followed by incubation in drug free medium for 48 hrs by broth microdilution method; type: functional, organism-based
Candida tropicalis [15] = test: Antifungal activity against > 2 x 10^7 CFU/ml Candida tropicalis isolate 13 in antibiotic medium 3 assessed as partial growth after 24 hrs by broth microdilution method; type: functional, organism-based
Candida tropicalis [16] = test: Antifungal activity against 10^5 CFU/ml Candida tropicalis isolate 7 in RPMI 1640 medium at 12.5 ug/ml treated for 48 hrs followed by incubation in drug free medium for 48 hrs by broth microdilution method; type: functional, organism-based
Candida tropicalis [17] = test: Antifungal activity against 2 x 10^7 CFU/ml Candida tropicalis isolate 5 in RPMI 1640 medium after 24 hrs by broth microdilution method; type: functional; conditions: isolate 5, 24 h
Candida tropicalis [18] = test: Antifungal activity against Candida tropicalis isolate 5 in RPMI 1640 medium assessed as paradoxical growth at 6.25 ug/ml after 24 hrs by broth microdilution method; type: functional, organism-based
Candida tropicalis [19] = test: Antifungal activity against > 2 x 10^7 CFU/ml Candida tropicalis isolate 5 in antibiotic medium 3 assessed as partial growth after 24 hrs by broth microdilution method; type: functional, organism-based
Candida tropicalis [20] = test: Antifungal activity against Candida tropicalis isolate 7 in RPMI 1640 medium assessed as paradoxical growth at 12.5 ug/ml after 24 hrs by broth microdilution method; type: functional, organism-based
Candida tropicalis [21] = test: Antifungal activity against 10^5 CFU/ml Candida tropicalis isolate 4 in RPMI 1640 medium at =< 0.09 ug/ml after 24 hrs followed by incubation in drug free medium for 48 hrs by broth microdilution method; type: functional, organism-based
Candida tropicalis [22] = test: Antifungal activity against 2 x 10^7 CFU/ml Candida tropicalis isolate 4 in RPMI 1640 medium after 24 hrs by broth microdilution method; type: functional; conditions: isolate 4, 24 h
Candida tropicalis [23] = test: Antifungal activity against 10^5 CFU/ml Candida tropicalis isolate 4 in RPMI 1640 medium at 0.4 to 12.5 ug/ml treated for 48 hrs followed by incubation in drug free medium for 48 hrs by broth microdilution method; type: functional, organism-based
Candida tropicalis [24] = test: Antifungal activity against 10^5 CFU/ml Candida tropicalis isolate 13 in RPMI 1640 medium at =< 0.09 ug/ml after 24 hrs followed by incubation in drug free medium for 48 hrs by broth microdilution method; type: functional, organism-based
Candida tropicalis [25] = test: Antifungal activity against 10^5 CFU/ml Candida tropicalis isolate 8 in RPMI 1640 medium at 12.5 ug/ml treated for 24 hrs followed by incubation in drug free medium for 48 hrs by broth microdilution method; type: functional, organism-based
Candida tropicalis [26] = test: Antifungal activity against 2 x 10^7 CFU/ml Candida tropicalis isolate 6 in antibiotic medium 3 after 24 hrs by broth microdilution method; type: functional; conditions: isolate 6, 24 h

CC[C@H](C)C[C@H](C)CCCCCCCCC(=O)N[C@H]1C[C@@H](O)[C@@H](NCCN)NC(=O)[C@@H]2[C@@H](O)CCN2C(=O)[C@H]([C@H](O)CCN)NC(=O)[C@H]([C@H](O)[C@@H](O)c2ccc(O)cc2)NC(=O)[C@@H]2C[C@@H](O)CN2C(=O)[C@H]([C@@H](C)O)NC1=O [CASPOFUNGIN]
inactive: Activity (Candida tropicalis [1]) | Activity (Candida tropicalis [3]) | Activity (Candida tropicalis [4]) | Activity (Candida tropicalis [5]) | Activity (Candida tropicalis [9]) | Activity (Candida tropicalis [10]) | Activity (Candida tropicalis [11]) | Activity (Candida tropicalis [13]) | Activity (Candida tropicalis [14]) | Activity (Candida tropicalis [15]) | Activity (Candida tropicalis [18]) | Activity (Candida tropicalis [19]) | Activity (Candida tropicalis [23]) | Activity (Candida tropicalis [25])
active: Activity (Candida tropicalis [8]) | Activity (Candida tropicalis [16]) | Activity (Candida tropicalis [20]) | Activity (Candida tropicalis [21]) | Activity (Candida tropicalis [24])
0.024 µg/mL: MIC (Candida tropicalis [2]) | MIC (Candida tropicalis [6]) | MIC (Candida tropicalis [7]) | MIC (Candida tropicalis [12]) | MIC (Candida tropicalis [17]) | MIC (Candida tropicalis [22]) | MIC (Candida tropicalis [26])
